Here are results for one molecule from patent publication US20240335382A1, “NANO- OR MICRO-EMULSION COMPOSITIONS AND METHODS OF USE THEREOF” (Nutraceutical Wellness, Inc., priority 2021, published 2024).

For the data set, the system named is skin of human subjects. The data set can be described thus: Acute primary skin patch test, single 48-hour application. As to conditions: positive control, 55 subjects completing study. Format: in vivo. The method, then: To determine the primary (acute) irritation potential of a test material after a single application to the skin of human subjects for 48 hours.
Test materials to be tested under occlusive conditions were placed on an 8-millimeter aluminum Finn Chamber® (Epitest Ltd. Oy, Tuusula, Finland) supported on Scanpor® Tape (Norgesplaster A/S, Kristiansand, Norway) or an 8-millimeter filter paper coated aluminum Finn Chamber® AQUA supported on a thin flexible transparent polyurethane rectangular film coated on one side with a medical grade acrylic adhesive, consistent with adhesive used in state-of-the-art hypoallergenic surgical tapes or a 7 mm IQ-ULTRA® closed cell system which is made of additive-free polyethylene plastic foam with a filter paper incorporated (It is supplied in units of 10 chambers on a hypoallergenic non woven adhesive tape; the width of the tape is 52 mm and the length is 118 mm) or other equivalents.
Test materials to be tested under semi-occlusive conditions were placed on a test strip with a Rayon/Polypropylene pad or on a 7.5 mm filter paper disc affixed to a strip of hypoallergenic tape (Johnson & Johnson 1 inch First Aid Cloth Tape). […]
Trained skin grading laboratory personnel removed the patch and evaluated the test sites.
In the event of an adverse reaction, the area of erythema and edema is measured. […]

Consider `CCCCCCCCCCCCOS(=O)(=O)[O-].[Na+]` [2.0% Sodium Lauryl Sulfate Solution, Sodium Lauryl Sulfate], for which the “subjects with a Grade 1 reaction” value was 16 subjects.
